Laboratory results: patent publication US20250114313A1, “OLIGO-BENZAMIDE ANALOGS AND THEIR USE IN CANCER TREATMENT” (BOARD OF REGENTS, THE UNIVERSITY OF TEXAS SYSTEM, priority 2022, published 2025)
Entries after “also recorded” stand apart in the source; their conditions may differ.

How the values were obtained:
[1] = tested on: normal human mammary epithelial cells (HMEC); test: Cell viability (WST, MTT, CellTiter-Glo), HMEC; format: cell-based; settings: at >1 μM, MTT or CellTiter-Glo
Procedure: Cell viability assays: Cells were seeded in 96-well plates (2×10^3 cells/well) one day before the treatment. Cells were treated with varying concentrations of ERX-41 or ERX-11 analogs for 3-6 days. Then effects of ERX-41 or ERX-11 analogs on cell viability were measured in triplicate or sextuplicate with multiple biological replicates using the WST-1 (Promega), MTT as previously described^33 or CellTiter-Glo 2.0 (Promega) assays.

[2] = Pharmacokinetics in MDA-MB-231 xenograft tumor-bearing mice (LC-MS/MS); format: in vivo
From the text: Analytical LC-MS/MS conditions: Compound levels in plasma and tissues for in vivo pharmacokinetic (PK) studies were monitored by LC-MS/MS using an AB Sciex (Framingham, MA) 6500^+ QTRAP® mass spectrometer coupled to a Shimadzu (Columbia, MD) Prominence LC. Analytes were detected with the mass spectrometer in positive MRM (multiple reaction monitoring) mode by following the precursor to fragment ion transition 705.3→592.3. An Agilent C18 XDB column (5 micron, 50×4.6 mm) was used for chromatography for PK studies with the following conditions: Buffer A: dH2O+0.1% formic acid, Buffer B: methanol+0.1% formic acid, 0-1.0 min 5% B, 1.0-2 min gradient to 98% B, 2-3.0 min 98% B, 3.0-3.2 min gradient to 5% B, 3.2-4.5 min 5% B. Tolbutamide (transition 271.2 to 91.2) from Sigma (St. Louis, MO) was used as an internal standard (IS). Pharmacokinetic studies were performed in MDA-MB-231 xenograft tumor-bearing female NOD-SCID mice. ERX-41 was given either orally or intraperitoneally (10 mg/kg single dose). Animals were sacrificed in groups of three, blood was obtained by cardiac puncture at each time point (0, 0.5, 1.5, 3, 6 and 24 hours post dose) using the anticoagulant EDTA and plasma isolated by centrifugation. Tumor and liver were also collected and snap frozen in liquid nitrogen after rinsing with PBS to remove surface adhering blood. Tissues were homogenized in a 3-fold volume (weight by volume) of PBS to generate a homogenate. 100 μl of plasma or tissue homogenate was mixed with 200 μl of methanol containing 0.15% formic acid and 15 ng/mL tolbutamide IS. The samples were vortexed 15 sec, incubated at room temp for 10 min and spun twice at 16,100×g 4° C. in a refrigerated microcentrifuge. The amount of compound present in plasma, tumor and liver was quantified by LC-MS/MS to determine the amount of compound in each matrix. Standard curves were generated using blank plasma (Bioreclamation, Westbury, NY, RRID:SCR_004728) or blank tissue homogenate spiked with known concentrations of test compound and processed as described above. The concentrations of drug in each time-point sample were quantified using Analyst 1.7.1 software (Sciex). A value of 3-fold above the signal obtained from blank plasma or tissue homogenate was designated the limit of detection (LOD). The lower limit of quantitation (LLOQ) was defined as the lowest concentration at which back calculation yielded a concentration within 20% of theoretical and which was above the LOD. The LLOQ for plasma and tumor was 0.1 ng/mL and 1 ng/mL in liver. PK parameters, Cmax, Tmax, Terminal T½ (calculated as Ln(2)/λz), AUClast (area under the concentration time curve to the last measured value determined by linear trapezoidal rule), Cl (clearance measured as Dose/AUCinf), and Vz (volume of distribution based on the terminal phase=Dose/AUCinf*λz) were calculated using the noncompartmental analysis tool of Phoenix WinNonLin version 8.01 (Certara/Pharsight, Sunnyvale, CA, RRID:SCR_003163).

[3] = target: T1, ER Alpha-LBD (GST) (Homo sapiens, UniProt P03372); test: LanthaScreen TR-FRET ER alpha Coactivator Assay, antagonist mode; format: binding; settings: 2 h incubation
T1 construct: 3.5 nM ER Alpha-LBD (GST); purchased life technologies A15885
T1 sequence (P03372 311-547 limits assumed): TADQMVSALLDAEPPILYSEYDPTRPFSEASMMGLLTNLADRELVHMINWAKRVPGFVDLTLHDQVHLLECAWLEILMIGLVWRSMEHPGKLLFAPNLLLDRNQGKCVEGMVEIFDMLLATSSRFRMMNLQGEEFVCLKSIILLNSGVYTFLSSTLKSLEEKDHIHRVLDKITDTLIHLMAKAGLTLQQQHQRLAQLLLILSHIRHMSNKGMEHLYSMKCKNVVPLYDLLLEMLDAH

[4] = tested on: primary TNBC PDEs; test: TNBC patient-derived explant (PDE) cultures ex vivo; format: cell-based, human
From the text: TNBC patient-derived explant (PDE) studies: For PDE studies excised tissue samples were processed and cultured ex vivo as previously described. De-identified patient tumors were obtained from the UTSW Tissue Repository after institutional review board approval (STU-032011-187). Inclusion criteria included women with prior histologic confirmation of TNBC who were undergoing surgical extirpation or biopsy of their primary tumor. Prior treatment with chemotherapy and/or radiation was allowed. Exclusion criteria included concurrent or prior diagnosis of other malignancies or prior evidence of ERα+ or HER2+ breast cancer. All cases were reviewed by the UTSW Tissue Repository in advance and patients were consented for their tissue to be used for laboratory research. Only de-identified information was shared with the laboratory. None of the laboratory personnel had access to additional patient information. No attrition was noted. Briefly, fresh tumor samples were incubated on gelatin sponges in culture medium containing 10% FBS, followed by treatment with either vehicle or presence of 2.5 μM ERX-41 for 72 h. Representative tissues were fixed in 10% formalin at 4° C. overnight and subsequently processed into paraffin blocks. Sections were then processed for immunohistochemical analysis.
Immunohistochemistry: Immunohistochemical studies were performed as described previously.^7 For the immunohistochemical studies, tissue sections were blocked in background sniper (Biocare Medical, RS966L) followed by overnight incubation with primary antibodies anti-Ki-67 antibody (1:1000, GeneTex cat #GTX16667 RRID:AB_422351) (link), anti-CHOP antibody (1:2000, Sigma, Cat #HPA068416), anti-PERK (phospho T982) antibody (1:150, Abcam Cat #ab192591, RRID:AB_2728666) link)), anti-phospho-eIF2α (Ser51) (1:50, Cell signaling, cs3398) and subsequent secondary antibody incubation for 60 min at room temperature. Immunoreactivity was visualized by using the DAB substrate and counterstained with hematoxylin (Vector Lab, Inc.). […]

CC(C)COc1cc(C(=O)Nc2ccc(C(=O)N[C@H]3CC[C@H](C)CC3)cc2OCC(C)C)ccc1NC(=O)c1ccc([N+](=O)[O-])c(OCCO)c1 [ERX-41]
effect on normal human mammary epithelial cells [1]: non-toxic; also recorded: did not have significant effect | drug level in treated tumor tissues at 24 h ([2]; 10 mg/kg single dose): detectable levels of ERX-41 at 24 h | oral bioavailability ([2]; mouse, in vivo, po): orally bioavailable | time to detection in liver and kidneys ([2]; oral administration): ≤ 4 h | time to detection in subcutaneous MDA-MB-231 xenograft tumors ([2]; oral or intraperitoneal administration): ≤ 1.5 h | time of peak detectable levels in plasma ([2]; oral, 10 mg/kg single dose): 4 h | interaction with ERα LBD [3]: does not interact with ERG LBD | UPR pathway markers in explants ([4]; IHC, within 24 h after treatment): enhanced pPERK, CHOP (protein product of DDIT3 gene) and peIF2a staining | apoptosis (cleaved caspase 3 staining) of explants ([4]; ex vivo): increased apoptosis | proliferation (Ki67 staining) of explants ([4]; ex vivo): decreased proliferation
